In PubChem BioAssay (NCI):
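Following 48 hours of exposure in 96-well plates, responses at five concentrations were used to interpolate endpoints linearly. GI50 = concentration required for 50% inhibition of growth. TGI denotes the concentration required for complete inhibition of growth.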

How the values were obtained:
Test in all cases: growth of human tumour cells (NCI), 48 h
UO-31 renal = system: UO-31 renal
HOP-92 NSCLC = system: HOP-92 NSCLC
HL-60(TB) leukemia = system: HL-60(TB) leukemia
HT29 colon = system: HT29 colon
HCC-2998 colon = system: HCC-2998 colon
A498 renal = system: A498 renal
RXF 393 renal = system: RXF 393 renal
KM20L2 colon = system: KM20L2 colon
DLD-1 colon = system: DLD-1 colon
786-0 renal = system: 786-0 renal
LXFL 529 NSCLC = system: LXFL 529 NSCLC
PC-3 prostate = system: PC-3 prostate

Structure (SMILES)	TGI (UO-31 renal) [µM]	TGI (HOP-92 NSCLC) [µM]	TGI (HL-60(TB) leukemia) [µM]	TGI (HT29 colon) [µM]	TGI (HCC-2998 colon) [µM]	TGI (A498 renal) [µM]	TGI (RXF 393 renal) [µM]	TGI (KM20L2 colon) [µM]	TGI (DLD-1 colon) [µM]	TGI (786-0 renal) [µM]	TGI (LXFL 529 NSCLC) [µM]	TGI (PC-3 prostate) [µM]	GI50 (HT29 colon) [µM]	GI50 (HOP-92 NSCLC) [µM]	GI50 (HL-60(TB) leukemia) [µM]
O=C1C=CC2OC(c3ccccc3)C(O)C2O1 (centres undefined)	21.1	10.2	3.29	35.2	10.9	5.85	4.47	23.8	13.9	–	–	–	–	–	–
O=C(Nc1ccc(Cl)cc1C(F)(F)F)C(=O)C1CCCS1(=O)=O (centres undefined)	–	> 10	> 100	> 100	> 100	> 100	> 100	> 100	> 100	> 100	> 100	–	–	–	–
CCOC(=O)CC1COc2ccc3c(c21)OCO3 (centres undefined)	> 100	> 100	> 100	> 100	> 100	> 100	–	> 100	> 100	> 100	> 100	–	–	–	–
CC(CCC[C@H](C)CO)[C@H]1[C@@H](O)C(O)C2[C@@H]3C[C@@H](O)C4(O)C[C@@H](O)CC[C@]4(C)C3CC[C@@]21C (some centres undefined)	> 100	> 100	> 100	> 100	> 100	–	> 100	> 100	> 100	> 100	> 100	–	–	–	–
CC(=O)OC(CC1(C)C(C)CCC23COC(=O)C2=CCCC31)c1ccoc1 (centres undefined)	60	52.5	–	> 100	57.1	> 100	27.7	58.7	> 100	32.2	38.9	–	–	–	–
CCOC(=O)Cn1c2ccccc2c(=O)c2cc(C)c(C)c(C#N)c21	> 100	> 100	> 100	> 100	> 100	–	> 100	> 100	> 100	> 100	> 100	–	–	–	–
CCCCCCCCCCCC(=O)OC[C@H](C[As](=O)(O)O)OC(=O)CCCCCCCCCCC	29.5	3.85	> 28.6	21.7	22.4	17.1	5.68	18.8	26.7	26	14	10.5	–	–	–
NC(N)=NS(=O)(=O)c1ccc(N/N=C2/CCOC2=O)cc1	> 100	> 100	> 100	> 100	> 100	> 100	> 100	–	–	> 100	–	> 100	–	–	–
CCCNC(=S)N/N=C(\C)c1ccc(S(=O)(=O)N(C)c2ccccc2)cc1	> 100	> 100	> 100	> 100	> 100	> 100	38.2	–	–	> 72.9	–	> 100	–	–	–
C=CCNC(=S)N1CC(C)C(=O)Nc2cc(Cl)ccc21 (centres undefined)	> 100	> 100	> 100	> 100	–	> 100	> 100	> 100	> 100	> 100	> 100	–	–	–	–
COc1cc2c(c(OC)c1OC)C(=O)[C@@H]1[C@H]2N1C(=O)NCCCl	> 100	> 100	> 100	> 100	> 100	> 100	> 100	–	–	> 100	–	> 100	–	–	–
COc1cc2c3cc1Oc1c(O)c(OC)cc4c1C(Cc1ccc(O)c(c1)Oc1ccc(cc1)CC3N(C)CC2)N(C)CC4 (centres undefined)	29.3	24.3	48.4	18.9	13.6	32.2	9.7	17.4	–	25.9	17.1	–	–	–	–
CCOC(=O)C(=O)C=P(c1ccccc1)(c1ccccc1)c1ccccc1	> 100	> 100	> 100	> 100	> 100	> 100	> 100	> 100	> 100	> 100	> 100	–	–	–	–
CCOC(=O)c1cc(-n2nnc3ccccc32)cn1C	> 10	> 10	> 10	> 10	> 10	> 10	> 10	–	–	> 10	–	> 10	–	–	–
COC(=O)/C=C\C(C#N)(C#N)N=Cc1cccc(OC)c1	8.46	7.29	> 100	10.5	34.4	34.7	9.62	–	–	13.7	–	29.5	–	–	–
Cc1c[n+]2c3ccccc3c3ccccc3c2s1	14.5	47.4	> 61.6	> 100	13.7	> 100	0.559	–	> 44.5	> 100	21.6	–	–	–	–

Structure (SMILES)	TGI (UO-31 renal) [µM]	TGI (HOP-92 NSCLC) [µM]	TGI (HL-60(TB) leukemia) [µM]	TGI (HT29 colon) [µM]	TGI (HCC-2998 colon) [µM]	TGI (A498 renal) [µM]	TGI (RXF 393 renal) [µM]	TGI (KM20L2 colon) [µM]	TGI (DLD-1 colon) [µM]	TGI (786-0 renal) [µM]	TGI (LXFL 529 NSCLC) [µM]	TGI (PC-3 prostate) [µM]	GI50 (HT29 colon) [µM]	GI50 (HOP-92 NSCLC) [µM]	GI50 (HL-60(TB) leukemia) [µM]
COc1ccc([N+](=O)[O-])c2c(NCCCN(C)C)ccnc12	17.3	4.38	22.8	> 32.4	6.95	5.18	8.32	–	–	30.6	–	30.8	–	–	–
COc1cc2c(c(OC)c1OC)-c1ccc(SC)c(=O)cc1C(CC(=O)Oc1cccc([N+](=O)[O-])c1)C2 (centres undefined)	> 100	> 100	–	1.99	0.849	0.823	> 100	2.06	> 56.9	> 100	> 100	–	–	–	–
CC1(C)[C@@H]2C[C@H]1[C@@H](Cc1cccc(C[C@H]3c4cc(-c5ccccn5)ncc4[C@H]4C[C@@H]3C4(C)C)c1)c1cc(-c3ccccn3)ncc12	8.82	83.4	4.33	> 100	> 100	> 93.2	> 100	–	–	> 47.6	–	> 100	12.5	–	–
CNC(=O)NCNC(=O)NC	–	> 100	> 100	> 100	> 100	> 100	–	> 100	> 100	> 100	> 100	–	–	–	–
CCC(C)C(N)C(=O)NC(CC(N)=O)C(=O)NC(CC(C)C)C(=O)NC(CCCCN)C(=O)NC(C)C(=O)NC(CC(C)C)C(=O)NC(C)C(=O)NC(C)C(=O)NC(CC(C)C)C(=O)NC(C)C(=O)NC(CCCCN)C(=O)NC(CCCCN)C(=O)NC(C(=O)NC(CC(C)C)C(N)=O)C(C)CC (centres undefined)	32.1	5.38	7.23	35.9	> 56.3	32.5	21.7	> 58.6	25	13.7	28.7	–	–	–	–
CCCCCCCCCCCCOP(=O)(O)OP(=O)(O)OCC1OC(n2ccc(N)nc2=O)CC1O (centres undefined)	> 100	> 100	> 100	> 100	> 100	> 100	> 100	–	–	> 100	–	> 100	–	–	–
S=C(N/N=C(\c1ccccc1)c1ccccn1)NC1CCCCC1	> 100	> 100	> 100	> 100	> 100	> 100	> 100	–	–	> 100	–	> 100	–	–	–
CCOC(=O)c1nc2ccc(C(F)(F)F)cc2nc1Nc1cc(OC)c(OC)c(OC)c1	> 100	> 100	> 100	> 100	> 100	> 100	> 100	–	–	> 100	–	> 100	–	–	–
COc1cccc(/C=N/NC(=O)CSCC(=O)N/N=C/c2cccc(OC)c2OC)c1OC	> 100	> 100	> 100	> 100	> 100	> 100	> 100	–	–	> 100	–	> 100	–	–	–
c1cc(-c2ccc(-c3ccc(-c4ccc(-c5ccncc5)o4)cc3)o2)ccn1	38	83.7	43.5	44.7	33.1	> 100	> 100	–	–	30.7	–	36.4	–	–	–
CC(Oc1ccccc1Cl)C(=O)NN1C(=O)CC(=O)N(c2ccccc2)C1=S (centres undefined)	> 100	68.8	59.7	> 100	> 100	> 100	> 100	–	–	> 100	–	> 100	–	–	–
N#CCc1c(-c2ccccc2)n(S(=O)(=O)c2ccccc2)c2ccccc12	> 100	> 100	> 100	> 100	> 100	–	–	> 100	> 100	> 100	> 100	–	–	–	–
CN(C)c1ccc(/C=C/c2ccc(S(N)(=O)=O)cc2)cc1	34.5	36	> 100	> 100	> 100	40.3	> 100	–	–	35.4	–	34.8	30.8	16.6	> 100
COc1ccccc1Cc1ccc(C2C=CC3(CC(=O)C=C3C)C(=O)C2)o1 (centres undefined)	> 100	75.6	41.7	> 100	> 100	47.7	56.3	–	–	41.9	–	38.3	–	–	–
NNC(=O)CC(=O)Nc1cccc(Cl)c1	> 100	> 100	> 100	> 100	> 100	> 100	> 100	–	–	> 100	–	> 100	–	–	–
